From US11421001B2, “Template-fixed peptidomimetics” (UNIVERSITAET ZUERICH, priority 2007, dated 2022) come the findings set out here.

Positions of bridges follow the written chain, without caps; N, C: chain ends. Non-standard residues stand in square brackets, D forms with d. Residues, ends and D or L forms follow the SMILES beside them. Dab = NCC[C@H](N)C(=O)O

The IC50 is the point on the concentration scale where inhibition reaches its midpoint.

In data set [1] the test system is human red blood cells (hRBC). Briefly: Hemolysis. It is filed as cell-based. The protocol: The peptides were tested for their hemolytic activity against human red blood cells (hRBC). Fresh hRBC were washed three times with phosphate buffered saline (PBS) by centrifugation for 10 min at 2000×g. Peptides at a concentration of 100 μM were incubated with 20% v/v hRBC for 1 hour at 37° C. The final erythrocyte concentration was approximately 0.9×10^9 cells per ml. A value of 0% resp. 100% cell lysis was determined by incubation of the hRBC in the presence of PBS alone and respectively 0.1% Triton X-100 in H2O. The samples were centrifuged and the supernatant was 20-fold diluted in PBS buffer and the optical density (OD) of the sample at […] was measured. The 100% lyses value (OD540H2O) gave an OD540 of approximately 1.3-1.8. Percent hemolysis was calculated as follows: (OD540peptide/OD540H2O)×100%.

Data set [2] has as its target T1, human CXCR4 (Homo sapiens, UniProt P61073).
T1 construct: expressed in transfected cells; host or cells: mouse pre-B cell line 300-19
Briefly: Ca2+ assay: CXCR4-antagonizing activity. The format is cell-based. As to conditions: mouse pre-B cell line 300-19 transfected with human CXCR4; calcium mobilization induced by 10 nM SDF-1; read-out: IC50 (nM) Ca2+ assay. The protocol: 2.2. Ca^2+− Assay: CXCR4-Antagonizing Activity of the Peptides.
Increases in intracellular calcium were monitored using a Flexstation 384 (Molecular Devices, Sunnyvale, Calif.) to assay the peptides for CXCR4 antagonism in a mouse pre-B cell line 300-19 stably transfected with human CXCR4 [see references 1, 2 and 3, below]. The cells were batch loaded with the Calcium 3 Assay kit (Molecular Devices) in assay buffer (Hanks Balanced salt solution, HBSS, 20 mM HEPES, pH 7.4, 0.1% BSA) for 1 h at room temperature and then 200,000 labeled cells were dispensed into black 96 well assays plates (Costar No. 3603). A 20-fold concentrated solution of peptide in assay buffer was added to the cells and the whole plate was centrifuged to settle the cells to the bottom of the wells. Calcium mobilization induced by 10 nM stromal-derived factor-1 (SDF-1) was measured in the Flexstation 384 (excitation, 485 […]) for 90 seconds. A maximal change in fluorescence response above baseline was used to calculate antagonist activity. The data for dose response curves (antagonist concentration versus % maximum response) were fitted to a four parameter logistic equation using SoftmaxPro 4.6 (Molecular Devices), from which IC50% values were calculated.
A general note: Calcium assays in cells follow changes in intracellular calcium, usually with a dye or a luminescent sensor.

Data set [3] in a line: Plasma stability, human plasma. As to conditions: read-out: Stability human Plasma t1/2. It is filed as in vitro ADME.
Data set [4] relates to hematopoietic progenitors (CFU-GM). The data set can be described thus: Stem cell mobilisation, mice model (CFU-GM). The format is in vivo, mouse. As to conditions: C3H/HeJ mice, 5 mg/kg s.c. The source says: The aim of the study was to evaluate the ability of the compound of Example 1 and Example 2 to mobilize hematopoietic progenitors from mouse bone marrow to peripheral blood using in-vitro hematopoietic colony assays. In humans, accurate information about progenitor cell mobilization is provided by the colony forming unit granulocyte-monocyte (CFU-GM) assay or by determining the abundance of CD34(+) cells by FACS analysis (see ref. 10 below). In mice, CD34 is not a useful marker for stem cells; instead the CFU-GM is more commonly used (see ref. 11 below).
In order to assess the ability of the compounds of Example 1 and Example 2 to mobilize murine stem cells (CFU-GM) C3H/HeJ female mice (Jackson Laboratory) were injected s.c. with 5 mg/k, of the compounds of Example 1 and of Example 2 and as reference AMD3100 (Broxmeyer, et al, J Exp Med 201, 1307-1318), (currently undergoing Phase III clinical trials) for stem cell mobilisation. Peripheral blood samples from 5 animals per test group were collected at each time point and nucleated cell counts performed as standard assays.

Data set [5] in a line: Maximum tolerated dose in mice. The note with it: CD1 mice, 120 mg/kg bolus, i.v, ip and sc. The format is in vivo, mouse. The protocol: 3.1. Maximum Tolerated Dose in Mice
a) The compound of Example 1, dispersed in Water for Injection or 0.9% physiological saline), was administered, in the preliminary study, by i.v. injection at dose levels of 35, 50, 70, 85, 100, 150, 250 or 500 mg/kg to groups consisting of one male and one female mouse (Crl:CD1(ICR)). In addition, two groups comprising two male and two female mice received dose levels of 90 and 100 mg/kg, respectively, and the 50 mg/kg dose level was repeated in a group comprising one male and one female.
b) Maximum tolerated dose studies (MTD) carried out with the compound of Example 2 using CD1 mice (3 mice/group) and was performed using i.v, ip and sc. administration.

Data set [6] is described as follows: Cytotoxicity assay (MTT reduction). It is filed as cell-based. As to conditions: human, HELA cells (Acc57), peptides at 12.5, 25 and 50 μM, trend line, read-out: Cyto-toxicity LC50/GI50 Hela cells. The protocol:
The cytotoxicity of the peptides to HELA cells (Acc57) and COS-7 cells (CRL-1651) was determined using the MTT reduction assay [see ref. 6 and 7, below]. Briefly the method was as follows: HELA cells and COS-7 cells were seeded at 7.0×10^3 and, respectively, 4.5×10^3 cells per well and grown in 96-well microtiter plates for 24 hours at 37° C. at 5% CO2. At this point, time zero (Tz) was determined by MTT reduction (see below). The supernatant of the remaining wells was discarded, and fresh medium and the peptides in serial dilutions of 12.5, 25 and 50 μM were pipetted into the wells. Each peptide concentration was assayed in triplicate. Incubation of the cells was continued for 48 hours at 37° C. at 5% CO2. Wells were then washed once with PBS and subsequently 100 μl MTT reagent (0.5 mg/mL in medium RPMI1640 and, respectively, DMEM) was added to the wells. This was incubated at 37° C. for 2 hours and subsequently the medium was aspirated and 100 μl isopropanol was added to each well. The absorbance at 595 nm of the solubilized product was measured (OD595peptide). For each concentration averages were calculated from triplicates. The percentage of growth was calculated as follows: (OD595peptide−OD595Tz−OD595Empty well)/(OD595Tz−OD595Empty well)×100% and was plotted for each peptide concentration. […]
For orientation: Formazan colour is commonly taken as a measure of viable cells.

T1 sequence (P61073 whole entry): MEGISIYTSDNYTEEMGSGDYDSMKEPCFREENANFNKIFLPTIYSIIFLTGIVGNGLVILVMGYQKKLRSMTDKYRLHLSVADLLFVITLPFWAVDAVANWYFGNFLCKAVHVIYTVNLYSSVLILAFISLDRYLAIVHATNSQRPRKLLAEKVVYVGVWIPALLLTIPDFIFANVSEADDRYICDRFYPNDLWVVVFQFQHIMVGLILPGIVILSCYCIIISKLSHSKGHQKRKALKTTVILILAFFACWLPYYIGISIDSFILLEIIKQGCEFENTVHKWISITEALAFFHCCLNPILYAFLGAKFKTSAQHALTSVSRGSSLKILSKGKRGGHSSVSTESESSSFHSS

For the compound `C[C@@H]1NC(=O)[C@H](CO)NC(=O)[C@@H]2CSSC[C@H](NC(=O)[C@H](Cc3ccc(O)cc3)NC(=O)[C@H](CCCNC(=N)N)NC(=O)[C@H](CCN)NC(=O)[C@H]3CCCN3C1=O)C(=O)N[C@@H](Cc1ccc(O)cc1)C(=O)N[C@@H](CCC(N)=O)C(=O)N[C@@H](CCCCN)C(=O)N1CCC[C@@H]1C(=O)N1CCC[C@H]1C(=O)N[C@@H](Cc1ccc(O)cc1)C(=O)N[C@@H](Cc1c[nH]cn1)C(=O)N[C@@H](Cc1ccc(O)cc1)C(=O)N2` [Example 2] (cyclo(YHYCSA[dP][Dab]RYCYQK[dP]P); disulfide 4-11), the “Hemo-lysis at 100 μM” value in data set [1] was found to be 0.3. Also, the IC50 in data set [2] is 4.1 nM. For the same compound, the half-life at 10 µM in data set [3] is greater than 5 h. Moreover, the “time of maximal effect on CFU-GM blood cell numbers” value in data set [4] was determined as 240 min. The “effect on CFU-GM blood cell numbers / progenitors over time” value in data set [4] (compared to control mice) is reported as “increased the CFU-GM blood cell numbers up to six hours post administration”. Moreover, in data set [5], the “survival at highest dose tested” value is recorded as “all animals survived” and the “symptoms at highest dose tested” value is “only mild symptoms were observed”. For the same compound, in data set [6], the CC50 at 48 h stood at 94 µM.
